Results as given in paper PMC8032668, “Evaluation of carboxyfluorescein-labeled 7-methylguanine nucleotides as probes for studying cap-binding proteins by fluorescence anisotropy” (Scientific Reports, 2021).

Assays:
eIF4E = target: T1, eIF4E (Mus musculus, UniProt P63073); assay: FA competition (probe-displacement) assay for eIF4E; assay type: binding, Murine; settings: for EC50: HEPES pH 7.2
T1 construct: Murine eIF4E (residues 28–217) was expressed in E. coli; made in house; host or cells: E. coli
T1 sequence (P63073 28-217): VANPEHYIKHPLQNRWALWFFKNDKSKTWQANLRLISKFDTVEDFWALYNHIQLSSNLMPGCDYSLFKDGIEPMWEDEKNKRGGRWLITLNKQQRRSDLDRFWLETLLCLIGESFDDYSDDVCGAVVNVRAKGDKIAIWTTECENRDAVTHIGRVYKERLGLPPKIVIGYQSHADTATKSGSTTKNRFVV
Method: Inclusion bodies containing eIF4E were solubilized in 50 mM HEPES/KOH (pH 7.2) buffer containing 10% glycerol, 6 M guanidine hydrochloride and 2 mM DTT. Protein was then refolded during a two-step dialysis against buffer with decreasing concentration of guanidine hydrochloride in the presence of 100 mM KCl. Subsequently eIF4E was loaded on ion exchange HiTrap SP HP column (GE Healthcare), eluted with linear gradient of 0.1–1 M KCl and finally desalted and polished during a gel filtration purification step on HiLoad 16/600 Superdex 75 pg (GE Healthcare) using 50 mM HEPES pH 7.2, 100 mM KCl, 0.5 mM EDTA, 2 mM DTT buffer. eIF4E was aliquoted and stored in the presence of 10% glycerol at −80 °C. Before each experiment the protein was centrifuged on Ultrafree-MC Centrifugal PVDF filter with […] pore size (Millipore), at 4 °C and 3000×g for 2 min to remove any possible aggregates.
Experiments were carried out at 25 °C in 96-well non-binding microplates with sample volume of 200 µl per well. Two different buffers were used depending on protein used in the assay:
eIF4E assay buffer—50 mM HEPES (pH 7.2), 100 mM KCl, 0.5 mM EDTA, 1 mM DTT.
For competitive binding assay, a mixture containing the probe and the protein was incubated with the tested ligand.
In competitive measurements, a constant concentration of the protein and fluorescent probe and increasing concentration of the test ligand were used. At least 12 point dilutions of the tested compound were used. The experiments were carried out in 96-well plates. Each sample contained a mixture consisting of the probe, tested ligand and buffer (same as for the direct binding assay). The samples were incubated for 10 min at 25 °C with simultaneous shaking, then the protein was added to each well, incubated for additional 3 min, followed by the measurement of fluorescence anisotropy. FA signals were recorded for 20 min with 2 min intervals.

DcpS = target: T2, DcpS (Homo sapiens, UniProt Q96C86); assay: FA screening of in-house library, 2i:DcpS system; assay type: binding; settings: 1 nM 2i, 25 nM DcpS, 1.5 µM inhibitor
T2 construct: His tag; made in house; host or cells: E. coli BL21(DE3) RIL
T2 sequence (Q96C86 1-337): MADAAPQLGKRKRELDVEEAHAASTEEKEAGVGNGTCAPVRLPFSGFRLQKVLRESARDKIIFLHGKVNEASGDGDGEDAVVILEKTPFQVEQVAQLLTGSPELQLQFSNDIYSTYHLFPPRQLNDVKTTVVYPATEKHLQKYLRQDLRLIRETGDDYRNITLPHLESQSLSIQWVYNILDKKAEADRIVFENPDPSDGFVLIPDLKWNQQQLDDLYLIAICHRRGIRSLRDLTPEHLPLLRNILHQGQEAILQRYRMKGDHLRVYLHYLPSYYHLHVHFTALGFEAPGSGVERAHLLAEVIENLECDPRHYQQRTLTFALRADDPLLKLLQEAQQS
Method: The Z’ factor was determined under conditions optimized for the competition assay. The Z’ value exceeded 0.8 for incubation times up to 1 h, making the assay suitable for screening experiments (Table 5). A screening experiment was then performed using the same compound library as that used for eIF4E screening. The results highlighted the impact of the triphosphate bridge modification on the affinity for the protein. […] The FA method also enabled the identification of unstable compounds, e.g., hydrozylable ligands for which determination of affinity is problematic (as observed by FA signal changes during the experiment; Fig. 7).
To evaluate the quality of the assay, the Z’ factor was determined for several protein-probe combinations. The assay was performed on 96-well microplates, where half of the samples were negative controls and the other half were positive controls.
For the screening experiments a small in-house library containing 21 ligands was used. Experiments were conducted in the same manner as Z’ factor determination, with exception that the ligand concentration was modified (eIF4E screening conditions: 1 nM 1e, 100 nM eIF4E, 750 nM ligand, DcpS screening conditions: 1 nM 2i, 25 nM DcpS, 1.5 µM ligand). For eIF4E screening experiment, the 1e:eIF4E system was used, for DcpS screening 2i:DcpS system was used.

[1] = Probe 1a: 10 nM probe 1a and 100 nM eIF4E
[2] = Probe 1b: 1 nM probe 1b and 15 nM eIF4E
[3] = Probe 1e: footnote c, 1 nM probe 1c and 100 nM eIF4E

| Compound | Hill slope (eIF4E; [1]) | EC50 (eIF4E; [1]) | Hill slope (eIF4E; [2]) | EC50 (eIF4E; [2]) | Hill slope (eIF4E; [3]) | EC50 (eIF4E; [3]) | inhibitory potency in DcpS screening (DcpS) | stability towards DcpS (FA signal changes during the screening experiment) (DcpS) |
| --- | --- | --- | --- | --- | --- | --- | --- | --- |
| m^7GSppSpG D2 | – | – | – | – | – | – | the most potent inhibitors | – |
| C[n+]1cn([C@@H]2O[C@H](COP(=O)(O)CP(=O)(O)OP(=O)([O-])OP(=O)(O)OC[C@H]3O[C@@H](n4cnc5c(=O)[nH]c(N)nc54)[C@H](O)[C@@H]3O)[C@@H](O)[C@H]2O)c2nc(N)nc(O)c21 [m^7GpCH2pppG] | – | – | – | – | – | – | strong DcpS inhibitors | – |
| [BH3-]P(=O)(OP(=O)(O)OCC1OC(n2cnc3c(=O)[nH]c(N)nc32)C(O)C1O)OP(=O)(O)OCC1OC(n2c[n+](C)c3c(=O)[nH]c(N)nc32)C(O)C1O (centres unmarked) [m^7GppBH3pG D1] | – | – | – | – | – | – | – | slowly hydrolyzed DcpS substrates |
| m^7GSppSpSG D2 | – | – | – | – | – | – | the most potent inhibitors | – |
| m^7GSppSpSG D1 | – | – | – | – | – | – | the most potent inhibitors | – |
| C[n+]1cn([C@@H]2O[C@H](COP(=O)(O)CP(=O)(O)OP(=O)(O)OC[C@H]3O[C@@H](n4cnc5c(=O)[nH]c(N)nc54)[C@H](O)[C@@H]3O)[C@@H](O)[C@H]2O)c2nc(N)[nH]c(=O)c21 [m^7GpCH2ppG] | – | – | – | – | – | – | strong DcpS inhibitors | – |
| C[n+]1cn([C@@H]2O[C@H](COP(=O)([S-])OP(=O)(O)OP(=O)(O)OC[C@H]3O[C@@H](n4cnc5c(=O)[nH]c(N)nc54)[C@H](O)[C@@H]3O)[C@@H](O)[C@H]2O)c2nc(N)nc(O)c21 (some centres unmarked) [m^7GpSppG D1] | – | – | – | – | – | – | – | slowly hydrolyzed DcpS substrates |

The next lines start with the values.

| Hill slope (eIF4E; [1]) | EC50 (eIF4E; [1]) | Hill slope (eIF4E; [2]) | EC50 (eIF4E; [2]) | Hill slope (eIF4E; [3]) | EC50 (eIF4E; [3]) | inhibitory potency in DcpS screening (DcpS) | stability towards DcpS (FA signal changes during the screening experiment) (DcpS) | Compound |
| --- | --- | --- | --- | --- | --- | --- | --- | --- |
| 1.12 ± 0.03 | 413 ± 13 nM | 1.12 ± 0.06 | 599 ± 64 nM | 1.08 ± 0.11 | 551 ± 75 nM | – | – | Cn1c[n+]([C@@H]2O[C@H](COP(=O)(O)OP(=O)([O-])OP(=O)(O)OC[C@H]3O[C@@H](n4cnc5c(=O)[nH]c(N)nc54)[C@H](O)[C@@H]3O)[C@@H](O)[C@H]2O)c2nc(N)[nH]c(=O)c21 [m^7GpppG] |
| – | – | – | – | – | – | – | slowly hydrolyzed DcpS substrates | [BH3-]P(=O)(OP(=O)(O)OCC1OC(n2cnc3c(=O)[nH]c(N)nc32)C(O)C1O)OP(=O)(O)OCC1OC(n2c[n+](C)c3c(=O)[nH]c(N)nc32)C(O)C1O (centres unmarked) [m^7GppBH3pG D2] |
| 1.37 ± 0.02 | 184 ± 13 nM | 1.16 ± 0.18 | 210 ± 32 nM | 1.10 ± 0.06 | 226 ± 43 nM | – | – | C[n+]1cn([C@@H]2O[C@H](COP(=O)([O-])OP(O)(=S)OP(=O)(O)OC[C@H]3O[C@@H](n4cnc5c(=O)[nH]c(N)nc54)[C@H](O)[C@@H]3O)[C@@H](O)[C@H]2O)c2nc(N)[nH]c(=O)c21 (single isomer, unassigned) [m^7GppSpG D1] |
| 1.94 ± 0.26 | 74 ± 10 nM | 1.37 ± 0.08 | 34.9 ± 7 nM | 1.40 ± 0.06 | 64.3 ± 3.4 nM | – | – | CO[C@@H]1[C@H](O)[C@@H](COP([O-])(=S)OP(=O)(O)OP(=O)(O)OP(=O)(O)OC[C@H]2O[C@@H](n3cnc4c(=O)[nH]c(N)nc43)[C@H](O)[C@@H]2O)O[C@H]1n1c[n+](C)c2c(=O)[nH]c(N)nc21 (single isomer, unassigned) [m^7′-OGpSpppG D2, m^7,2′-OGpSpppG D2] |
| 2.07 ± 0.02 | 68 ± 3 nM | 1.64 ± 0.10 | 22.2 ± 3.7 nM | 1.46 ± 0.60 | 51.4 ± 6.1 nM | – | – | CO[C@@H]1[C@H](O)[C@@H](COP([O-])(=S)OP(=O)(O)OP(=O)(O)OP(=O)(O)OC[C@H]2O[C@@H](n3cnc4c(=O)[nH]c(N)nc43)[C@H](O)[C@@H]2O)O[C@H]1n1c[n+](C)c2c(=O)[nH]c(N)nc21 (single isomer, unassigned) [m^7′-OGpSpppG D1, m^7,2′-OGpSpppG D1] |
| 1.19 ± 0.06 | 382 ± 21 nM | 1.15 ± 0.06 | 511 ± 109 nM | 1.04 ± 0.17 | 477 ± 89 nM | – | – | C[n+]1cn([C@@H]2O[C@H](COP(=O)([O-])OP(O)(=S)OP(=O)(O)OC[C@H]3O[C@@H](n4cnc5c(=O)[nH]c(N)nc54)[C@H](O)[C@@H]3O)[C@@H](O)[C@H]2O)c2nc(N)[nH]c(=O)c21 (single isomer, unassigned) [m^7GppSpG D2] |
